From paper PMC7315563, “Bioactive fluorenes. Part III: 2,7-dichloro-9H-fluorene-based thiazolidinone and azetidinone analogues as anticancer and antimicrobial against multidrug resistant strains agents” (BMC Chemistry, 2020)
≈ marks a conversion by molar mass, not a printed value.

Key:
[1] = tested on: Escherichia coli (E. coli), multidrug resistant clinical isolate; test: agar well diffusion assay; assay type: cell-based; settings: 24 h, 500 µg/mL of tested compound
Source text: (§1) All microbial strains were kindly provided from the department of Medical Microbiology and Immunology faculty of Medicine Assiut University, these clinical isolates were obtained from clinical cases of infections admitted to Assiut University hospital as urinary tract infections, corneal ulcers, bacterial and fungal pneumonia, otomycosis, oral thrush and wound infections.
(§2) The clinical isolates used were multidrug resistant strains, they were resistant to β lactam (penicillin, amoxacillin, oxacillin), cephalosporins (cefazolin, cefaclor and cefepime) and macrolides (erythromycin and clarithromycin), they included Gram positive bacteria as Staphylococcus aureus (S. aureus), Methicillin-resistant Staphylococcus aureus (MRSA), Streptococcus pneumoniae (S. pneumoniae), and Gram negative bacteria as Escherichia coli (E. coli), Klebsiella pneumoniae (K. pneumoniae), Pseudomonas aeruginosa (P. aeruginosa), and Acinetobacter baumannii (A. baumannii). The fungal strains that were tested are Aspergillus flavus (A. flavus), A. niger (A. niger) and Candida albicans (C. albicans).
(§3) The antimicrobial activity of the fluorene derivatives was initially evaluated by agar well diffusion assay. Mueller–Hinton agar (CM0337) was poured into Petri dishes at 50–60 °C and left to solidify for 15 min. Subsequently, overnight microbial suspensions of tested strains was adjusted to turbidity of 0.5 McFarland Standard, which equals to 1–2 × 10^8 CFU/mL for bacteria and 1–5 × 10^6 for fungi. The microbial inoculums were then diluted in 1:100 ratio in case of bacteria and 1:10 ratio in case of fungi in order to get 1–5 × 10^5 CFU/mL. a sterile cotton swab was dipped into the adjusted microbial suspension and the Mueller–Hinton agar plates were inoculated by evenly streaking cotton swab over the agar medium. Then wells with a diameter of 0.5 cm were cut in the medium with a sterile cork borer. Stock solutions of the flourene derivatives were diluted in DMSO 1% to get 500 μg/mL concentrations. The tested flourene derivatives and controls (50 μL) were dispensed into the wells. The plates were incubated for 24 h at 37 °C for bacteria and C. albicans while at 25 °C for A. falvus and A. niger. The diameters of zones of inhibition (ZOI) around the wells were measured in mm. Following control agents were used: positive control agents—vancomycin (50 μg/mL) for Gram positive bacteria, gentamicin (10 μg/mL) (for Gram negative bacteria) and fluconazole 25 μg/mL for fungi and negative control agent is 1% DMSO.

[2] = tested on: Staphylococcus aureus (S. aureus), multidrug resistant clinical isolate; test: agar well diffusion assay; assay type: cell-based; settings: Staphylococcus aureus; S. aureus; 500 µg/mL of tested compound; 24 h
Source text: as §1, §2, §3

[3] = tested on: MDA-MB-231 human breast cancer cells; test: cell viability assay (MTT); assay type: cell-based; settings: 24 h; for viability at 1 µg/mL: read-out: Validity (%) for sample concentrations (µg/mL) 1; for viability at 10 µg/mL: read-out: Validity (%) for sample concentrations (µg/mL) 10; for viability at 31.25 µg/mL: read-out: Validity (%) for sample concentrations (µg/mL) 31.25; for viability at 62.5 µg/mL: read-out: Validity (%) for sample concentrations (µg/mL) 62.5; for viability at 125 µg/mL: read-out: Validity (%) for sample concentrations (µg/mL) 125; for viability at 250 µg/mL: read-out: Validity (%) for sample concentrations (µg/mL) 250; for viability at 500 µg/mL: read-out: Validity (%) for sample concentrations (µg/mL) 500
Outline: (§4)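 24 h treatment, eight concentrations from 0 to 500 µg/mL, cells plated one day earlier at 5000/well in RPMI-1640 + 10% FBS. MTT endpoint, OD 570 nm.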

[4] = tested on: WI-38 human normal fibroblast cells; test: cell viability assay (MTT); assay type: cell-based; settings: 24 h; for viability at 31.25 µg/mL: read-out: Validity (%) for sample concentrations (µg/mL) 31.25; for viability at 62.5 µg/mL: 62.50 µg/mL, read-out: Validity (%) for sample concentrations (µg/mL) 62.50; for viability at 125 µg/mL: read-out: Validity (%) for sample concentrations (µg/mL) 125; for viability at 250 µg/mL: read-out: Validity (%) for sample concentrations (µg/mL) 250; for viability at 500 µg/mL: read-out: Validity (%) for sample concentrations (µg/mL) 500
Outline: as §4

[5] = tested on: A549 human lung cancer cells; test: cell viability assay (MTT); assay type: cell-based; settings: 24 h; for viability at 1 µg/mL: read-out: Validity (%) for sample concentrations (µg/mL) 1; for viability at 10 µg/mL: read-out: Validity (%) for sample concentrations (µg/mL) 10; for viability at 31.25 µg/mL: read-out: Validity (%) for sample concentrations (µg/mL) 31.25; for viability at 62.5 µg/mL: 62.50 µg/mL, read-out: Validity (%) for sample concentrations (µg/mL) 62.50; for viability at 125 µg/mL: read-out: Validity (%) for sample concentrations (µg/mL) 125; for viability at 250 µg/mL: read-out: Validity (%) for sample concentrations (µg/mL) 250; for viability at 500 µg/mL: read-out: Validity (%) for sample concentrations (µg/mL) 500; for viability at 1000 µg/mL: read-out: Validity (%) for sample concentrations (µg/mL) 1000
[6] = tested on: Klebsiella pneumoniae (K. pneumoniae), multidrug resistant clinical isolate; test: agar well diffusion assay; assay type: cell-based; settings: 24 h, 500 µg/mL of tested compound
Source text: as §1, §2, §3

| Structure (SMILES) | melting point [°C] | viability at 1 µg/mL [3] [%] | viability at 10 µg/mL [3] [%] | viability at 31.25 µg/mL [3] [%] | viability at 62.5 µg/mL [3] [%] | viability at 125 µg/mL [3] [%] | viability at 250 µg/mL [3] [%] | viability at 500 µg/mL [3] [%] | IC50 [3] [µg/mL] | viability at 31.25 µg/mL [4] [%] | viability at 62.5 µg/mL [4] [%] | viability at 125 µg/mL [4] [%] | viability at 250 µg/mL [4] [%] | viability at 500 µg/mL [4] [%] | IC50 [4] [µg/mL] | viability at 1 µg/mL [5] [%] | viability at 10 µg/mL [5] [%] | viability at 31.25 µg/mL [5] [%] | viability at 62.5 µg/mL [5] [%] | viability at 125 µg/mL [5] [%] | further results |
| --- | --- | --- | --- | --- | --- | --- | --- | --- | --- | --- | --- | --- | --- | --- | --- | --- | --- | --- | --- | --- | --- |
| O=C1CSC(c2ccncc2)N1c1nc(-c2cc(Cl)cc3c2-c2ccc(Cl)cc2C3)cs1 (centres unmarked) [5m, 3-(4-(2,7-Dichloro-9H-fluoren-4-yl)thiazol-2-yl)-2-(pyridin-4-yl)thiazolidin-4-one] | 110 to 112 | 97.3 | 89.5 | 85.4 | 88.3 | 76.9 | 65.6 | 50.6 | 505 (≈ 1020 µM) | 68.5 | 64.6 | 42.3 | 40.3 | 26.5 | 92 (≈ 185 µM) | 94 | 92.5 | 70.7 | 67.5 | 64.5 | zone of inhibition at 500 µg/mL [1]: 8 mm; zone of inhibition at 500 µg/mL [2]: 5 mm; viability at 250 µg/mL [5]: 56.5%; viability at 500 µg/mL [5]: 37.3%; viability at 1000 µg/mL [5]: 20.1%; IC50 [5]: 357 µg/mL (≈ 719 µM) |
| O=C1CSC(c2ccnc3ccccc23)N1c1nc(-c2cc(Cl)cc3c2-c2ccc(Cl)cc2C3)cs1 (centres unmarked) [5n, 3-(4-(2,7-Dichloro-9H-fluoren-4-yl)thiazol-2-yl)-2-(quinolin-4-yl)thiazolidin-4-one] | 204 to 206 | 98.7 | 91 | 92.8 | 90.6 | 76.8 | 58.7 | 27.2 | 315 (≈ 576 µM) | 54.3 | 51.5 | 50.8 | 46.4 | 40.5 | 130 (≈ 238 µM) | 94.2 | 91.2 | 83.1 | 78.6 | 70.7 | zone of inhibition at 500 µg/mL [2]: 7 mm; zone of inhibition at 500 µg/mL [6]: 5 mm; viability at 250 µg/mL [5]: 58.9%; viability at 500 µg/mL [5]: 27.3%; viability at 1000 µg/mL [5]: 8.02%; IC50 [5]: 380 µg/mL (≈ 695 µM) |
| O=C1C(Cl)C(c2ccccc2)N1c1nc(-c2cc(Cl)cc3c2-c2ccc(Cl)cc2C3)cs1 (centres unmarked) [6a, 3-Chloro-1-(4-(2,7-dichloro-9H-fluoren-4-yl)thiazol-2-yl)-4-phenylazetidin-2-one] | 118 to 120 | 99.4 | 92.4 | 90.7 | 83.1 | 78.3 | 69.6 | 63.2 | > 500 | 71.1 | 66.1 | 59.1 | 49.1 | 47.1 | 241 (≈ 484 µM) | 98.6 | 89.1 | 79.2 | 75.9 | 70.3 | zone of inhibition at 500 µg/mL [1]: 13 mm; zone of inhibition at 500 µg/mL [2]: 5 mm; viability at 250 µg/mL [5]: 30.7%; viability at 500 µg/mL [5]: 20.8%; viability at 1000 µg/mL [5]: 14.4%; IC50 [5]: 185 µg/mL (≈ 372 µM) |
| O=C1C(Cl)C(C=Cc2ccccc2)N1c1nc(-c2cc(Cl)cc3c2-c2ccc(Cl)cc2C3)cs1 (centres unmarked) [6i, 3-Chloro-1-(4-(2,7-dichloro-9H-fluoren-4-yl)thiazol-2-yl)-4-styrylazetidin-2-one] | 110 to 112 | 94.2 | 89.1 | 66.8 | 55.9 | 49.2 | 24.3 | 18.2 | 120 (≈ 229 µM) | 83.1 | 76.5 | 56.5 | 49.2 | 39.2 | 240 (≈ 458 µM) | 96.6 | 91.9 | 89.4 | 78.1 | 76.3 | zone of inhibition at 500 µg/mL [1]: 12 mm; zone of inhibition at 500 µg/mL [6]: 3 mm; viability at 250 µg/mL [5]: 67.9%; viability at 500 µg/mL [5]: 53.3%; viability at 1000 µg/mL [5]: 49.4%; IC50 [5]: 801 µg/mL (≈ 1530 µM) |
